- melting point: 178 to 185 °C
Compound: Cc1cc(C(F)(F)F)nn1CC(=O)N1CCN(c2nc(C3=NOC(c4c(F)cccc4F)C3)cs2)CC1C(=O)O (stereo not shown)

Reference: patent US20160007606A1, “MICROBIOCIDAL PYRAZOLE DERIVATIVES” (SYNGENTA PARTICIPATIONS AG, priority 2012, published 2016)
